Patent US10774052B2, “Heteroaryl compounds and uses thereof” (Celgene CAR LLC, priority 2013, dated 2020)

How the values were obtained:
[1] = test system: pFGFR4 in MDA-MB-453 cells; assay: FGFR4 signaling, pFGFR4 (MDA); Western blot (Method A), MSD (Method B), ELISA (Method C); assay type: cell-based; conditions: Homo sapiens, Method B (MSD) for signaling EC50 determination
Protocol: The MDA-MB-453 protein concentrations were determined by a BCA Assay (Pierce, Rockford, Ill.). A sample of 50-100 μg of each lysate was separated by a 4-12% gradient (SDS-PAGE (Invitrogen)), transferred to a nitrocellulose membrane (Biorad, Hercules, Calif.), and probed with specific antibodies. Phospho-protein signals were quantitated using Odyssey Infrared Imaging (Li-Cor Biosciences).
To assess phospho-FGFR signaling, the blots were probed with anti-Phospho-FGFR (Y653/Y654) and total anti-FGFR antibodies. The phospho-FGFR signal was normalized to total FGFR expression for each sample.

pFGFR4 in Huh7 cells = assay: FGFR4 signaling, pFGFR4 (Huh); MSD (Method B); assay type: cell-based; conditions: Homo sapiens, Huh-7; Huh7 cells; read-out: Signaling EC50 (nM) pFGFR4 (Huh)

Row | SMILES | EC50 ([1]; MDA-MB-453 cells) [nM] | EC50 (pFGFR4 in Huh7 cells) [nM] | EC50 ([1]; MDA-MB-453, MDA-MB-453 cells) [nM]
1 | C=CC(=O)Nc1ccccc1Nc1ncc2c(n1)N(C1CCCNC1)C(=O)N(c1cc(OC)cc(OC)c1)C2 (stereo not shown) [Compound I-43] | 501 to 999 | > 1000 | –
2 | C=CC(=O)Nc1ccccc1Nc1ncc2c(n1)NC(=O)N(c1cc(OC)cc(OC)c1)C2 [Compound I-125] | – | > 1000 | 501 to 999
3 | C=CC(=O)NC1CCCCC1Nc1ncc2c(n1)N(C1CC1)C(=O)N(c1c(Cl)c(OC)cc(OC)c1Cl)C2 (racemic) [Compound I-68] | – | 501 to 999 | 101 to 500
4 | C=CC(=O)Nc1cc(N(C)CCOC)ccc1Nc1ncc2c(n1)N(Cc1ccccc1)C(=O)N(c1cc(OC)cc(OC)c1)C2 [Compound I-13] | – | 101 to 500 | 101 to 500
5 | C=CC(=O)NC1CN(C(C)=O)CC1Nc1ncc2c(n1)N(C)C(=O)N(c1c(Cl)c(OC)cc(OC)c1Cl)C2 (racemic) [Compound I-139] | 101 to 500 | 101 to 500 | –
6 | C=CC(=O)NC1CCCCC1Nc1ncc2c(n1)N(C)C(=O)N(c1cc(OC)cc(OC)c1Cl)C2 (racemic) [Compound I-76] | – | > 1000 | 501 to 999
7 | C=CC(=O)NC1CCCCC1Nc1ncc2c(n1)N(CC(F)F)C(=O)N(c1cc(OC)cc(OC)c1Cl)C2 (racemic) [Compound I-107] | – | > 1000 | 501 to 999
8 | C=CC(=O)Nc1ccccc1Nc1ncc2c(n1)N(CC(F)F)C(=O)N(c1cc(OC)cc(OC)c1)C2 [Compound I-99] | 101 to 500 | 101 to 500 | –
9 | C=CC(=O)Nc1ccccc1Nc1ncc2c(n1)N(CCF)C(=O)N(c1cc(OC)cc(OC)c1)C2 [Compound I-102] | 101 to 500 | < 100 | –
10 | C=CC(=O)NC1CN(C)CC1Nc1ncc2c(n1)N(C)C(=O)N(c1c(Cl)c(OC)cc(OC)c1Cl)C2 (racemic) [Compound I-138] | – | 101 to 500 | 101 to 500
11 | C=CC(=O)NC1CCCCC1Nc1ncc2c(n1)N(CC(F)F)C(=O)N(c1c(F)c(OC)cc(OC)c1F)C2 (stereo not shown) [Compound I-115] | 101 to 500 | 101 to 500 | –
12 | C=CC(=O)NC1CC=CCC1Nc1ncc2c(n1)N(C)C(=O)N(c1c(Cl)c(OC)cc(OC)c1Cl)C2 (racemic) [Compound I-113] | 101 to 500 | 101 to 500 | –
13 | C=CC(=O)NC1CCCCC1Nc1ncc2c(n1)N(CCOC)C(=O)N(c1c(Cl)c(OC)cc(OC)c1Cl)C2 (racemic) [Compound I-61] | 101 to 500 | 101 to 500 | –
14 | C=CC(=O)NC1CCCCC1Nc1ncc2c(n1)N(CCF)C(=O)N(c1cc(OC)cc(OC)c1Cl)C2 (racemic) [Compound I-111] | – | > 1000 | 501 to 999
15 | C=CC(=O)NC1CCCCC1Nc1ncc2c(n1)N(Cc1ccccc1)C(=O)N(c1c(Cl)c(OC)cc(OC)c1Cl)C2 (racemic) [Compound I-63] | 101 to 500 | < 100 | –
16 | C=CC(=O)NC1CCCCC1Nc1ncc2c(n1)N(CCF)C(=O)N(c1c(Cl)c(OC)cc(OC)c1Cl)C2 (racemic) [Compound I-106] | – | 101 to 500 | 101 to 500

Row | SMILES | EC50 ([1]; MDA-MB-453 cells) [nM] | EC50 (pFGFR4 in Huh7 cells) [nM] | EC50 ([1]; MDA-MB-453, MDA-MB-453 cells) [nM]
17 | C=CC(=O)NC1CCCCC1Nc1ncc2c(n1)N(CC#N)C(=O)N(c1c(Cl)c(OC)cc(OC)c1Cl)C2 (racemic) [Compound I-47] | 101 to 500 | 501 to 999 | –
18 | C=CC(=O)NC1CCCCC1Nc1ncc2c(n1)N(Cc1csc(C)n1)C(=O)N(c1c(Cl)c(OC)cc(OC)c1Cl)C2 (stereo not shown) [Compound I-137] | 101 to 500 | 101 to 500 | –
19 | C=CC(=O)N[C@H]1COC[C@H]1Nc1ncc2c(n1)N(C)C(=O)N(c1c(Cl)c(OC)cc(OC)c1Cl)C2 [Compound I-186] | – | < 100 | < 100
20 | C=CC(=O)Nc1cc(C(F)(F)F)ccc1Nc1ncc2c(n1)N(C)C(=O)N(c1cc(OC)cc(OC)c1)C2 [Compound I-42] | 101 to 500 | < 100 | –
21 | C=CC(=O)Nc1ccccc1Nc1ncc2c(n1)N(CC#N)C(=O)N(c1cc(OC)cc(OC)c1)C2 [Compound I-48] | 101 to 500 | 101 to 500 | –
22 | C=CC(=O)N[C@H]1CCCC[C@H]1Nc1ncc2c(n1)N(C)C(=O)N(c1c(F)c(OC)cc(OC)c1F)C2 [Compound I-143] | 101 to 500 | 101 to 500 | –
23 | C=CC(=O)NC1COCC1Nc1ncc2c(n1)N(C)C(=O)N(c1c(Cl)c(OC)cc(OC)c1Cl)C2 (stereo not shown) [Compound I-126] | – | < 100 | < 100
24 | C=CC(=O)Nc1cc(C)ccc1Nc1ncc2c(n1)N(C)C(=O)N(c1cc(OC)cc(OC)c1)C2 [Compound I-41] | 101 to 500 | 101 to 500 | –
25 | C=CC(=O)NC1CCCCC1Nc1ncc2c(n1)N(Cc1ccn(C)c(=O)c1)C(=O)N(c1c(Cl)c(OC)cc(OC)c1Cl)C2 (stereo not shown) [Compound I-132] | 101 to 500 | 101 to 500 | –
26 | C=CC(=O)N[C@H]1COCC[C@H]1Nc1ncc2c(n1)N(C)C(=O)N(c1c(Cl)c(OC)cc(OC)c1Cl)C2 [Compound I-140] | 101 to 500 | 101 to 500 | –
27 | C=CC(=O)Nc1ccccc1Nc1ncc2c(n1)N(C)C(=O)N(c1c(Cl)cccc1Cl)C2 [Compound I-83] | 101 to 500 | 101 to 500 | –
28 | C=CC(=O)Nc1ccccc1Nc1ncc2c(n1)N(CC(O)CO)C(=O)N(c1cc(OC)cc(OC)c1)C2 (stereo not shown) [Compound I-33] | 101 to 500 | > 1000 | –
29 | C=CC(=O)NC1CCCCC1Nc1ncc2c(n1)N(CC(F)F)C(=O)N(c1c(Cl)c(OC)cc(OC)c1Cl)C2 (racemic) [Compound I-105] | – | 101 to 500 | 101 to 500
30 | C=CC(=O)N[C@@H]1COC[C@@H]1Nc1ncc2c(n1)N(C)C(=O)N(c1c(Cl)c(OC)cc(OC)c1Cl)C2 [Compound I-185] | – | > 1000 | 101 to 500
31 | C=CC(=O)Nc1cc(-c2nnn(C)n2)ccc1Nc1ncc2c(n1)N(C)C(=O)N(c1cc(OC)cc(OC)c1)C2 [Compound I-146] | 101 to 500 | 101 to 500 | –
32 | C=CC(=O)Nc1ccccc1Nc1ncc2c(n1)N(Cc1cccc(C(N)=O)c1)C(=O)N(c1cc(OC)cc(OC)c1)C2 [Compound I-97] | 101 to 500 | 101 to 500 | –

The next lines start with results.

Row | EC50 ([1]; MDA-MB-453 cells) [nM] | EC50 (pFGFR4 in Huh7 cells) [nM] | SMILES | EC50 ([1]; MDA-MB-453, MDA-MB-453 cells) [nM]
33 | < 100 | < 100 | C=CC(=O)Nc1ccccc1Nc1ncc2c(n1)N(Cc1cn[nH]c1)C(=O)N(c1c(Cl)c(OC)cc(OC)c1Cl)C2 [Compound I-124] | –
34 | < 100 | < 100 | C=CC(=O)Nc1nn(C)cc1Nc1ncc2c(n1)N(C)C(=O)N(c1c(Cl)c(OC)cc(OC)c1Cl)C2 [Compound I-117] | –
35 | 101 to 500 | 101 to 500 | C=CC(=O)Nc1ccccc1Nc1ncc2c(n1)N(Cc1cscn1)C(=O)N(c1cc(OC)cc(OC)c1)C2 [Compound I-64] | –
36 | < 100 | < 100 | C=CC(=O)Nc1ccccc1Nc1ncc2c(n1)N(CC1CC1)C(=O)N(c1cc(OC)cc(OC)c1Cl)C2 [Compound I-100] | –
37 | 101 to 500 | 101 to 500 | C=CC(=O)Nc1ccccc1Nc1ncc2c(n1)N(CCOC)C(=O)N(c1cc(OC)cc(OC)c1)C2 [Compound I-59] | –
38 | < 100 | < 100 | COc1cc(OC)c(Cl)c(N2Cc3cnc(Nc4ccccc4)nc3N(C)C2=O)c1Cl [Compound I-238] | –
39 | 101 to 500 | 101 to 500 | C=CC(=O)Nc1ccccc1Nc1ncc2c(n1)N(C1CCCN(C(=O)OC(C)(C)C)C1)C(=O)N(c1cc(OC)cc(OC)c1)C2 (stereo not shown) [Compound I-36] | –
40 | 101 to 500 | 101 to 500 | C=CC(=O)Nc1ccc(C(F)(F)F)cc1Nc1ncc2c(n1)N(C)C(=O)N(c1cc(OC)cc(OC)c1)C2 [Compound I-50] | –
41 | 101 to 500 | 101 to 500 | C=CC(=O)Nc1ccccc1Nc1ncc2c(n1)N(C1COC1)C(=O)N(c1cc(OC)cc(OC)c1)C2 [Compound I-88] | –
42 | < 100 | < 100 | C=CC(=O)Nc1ccccc1Nc1ncc2c(n1)N(CC(F)F)C(=O)N(c1c(F)c(OC)cc(OC)c1F)C2 [Compound I-116] | –
43 | < 100 | < 100 | C=CC(=O)Nc1cc(-c2nnnn2C)ccc1Nc1ncc2c(n1)N(C)C(=O)N(c1c(Cl)c(OC)cc(OC)c1Cl)C2 [Compound I-153] | –
44 | < 100 | < 100 | C=CC(=O)Nc1ccccc1Nc1ncc2c(n1)N(C)C(=O)N(c1c(F)c(OC)cc(OC)c1F)C2 [Compound I-131] | –
45 | < 100 | 101 to 500 | C=CC(=O)Nc1ccccc1Nc1ncc2c(n1)N(Cc1ccc(F)cc1)C(=O)N(c1c(Cl)c(OC)cc(OC)c1Cl)C2 [Compound I-25] | –
46 | < 100 | < 100 | C=CC(=O)Nc1ccccc1Nc1ncc2c(n1)N(Cc1cccc(N)c1)C(=O)N(c1c(Cl)c(OC)cc(OC)c1Cl)C2 [Compound I-26] | –
47 | < 100 | < 100 | C=CC(=O)NC1CCCCC1Nc1ncc2c(n1)N(Cc1ccnc(N)c1)C(=O)N(c1c(Cl)c(OC)cc(OC)c1Cl)C2 (stereo not shown) [Compound I-133] | –
48 | < 100 | < 100 | C=CC(=O)Nc1ccccc1Nc1ncc2c(n1)N(CC1CC1)C(=O)N(c1cc(OC)cc(OC)c1)C2 [Compound I-98] | –
49 | < 100 | < 100 | C=CC(=O)Nc1ccccc1Nc1ncc2c(n1)N(Cc1cn[nH]c1)C(=O)N(c1cc(OC)cc(OC)c1)C2 [Compound I-121] | –
50 | < 100 | < 100 | C=CC(=O)Nc1ccccc1Nc1ncc2c(n1)N(Cc1ccnc(N)c1)C(=O)N(c1cc(OC)cc(OC)c1)C2 [Compound I-87] | –
51 | < 100 | < 100 | C=CC(=O)Nc1cc(N(C)CCOC)ccc1Nc1ncc2c(n1)N(C)C(=O)N(c1cc(OC)cc(OC)c1)C2 [Compound I-21] | –
52 | < 100 | < 100 | C=CC(=O)Nc1ccccc1Nc1ncc2c(n1)N(CCF)C(=O)N(c1cc(OC)cc(OC)c1Cl)C2 [Compound I-110] | –
53 | < 100 | < 100 | C=CC(=O)Nc1ccccc1Nc1ncc2c(n1)N(Cc1cccnc1)C(=O)N(c1cc(OC)cc(OC)c1)C2 [Compound I-44] | –
